Here are results for 14 molecules from PubChem BioAssay (NCI).

Common to all, as to experiment: NCI anticancer screen, dose series, 48 h
The subject of experiment [1] is KM12 colon.
In experiment [2] the test system is HOP-62 NSCLC.
Experiment [3] has as its system NCI-H522 lung.
In experiment [4] the test system is OVCAR-8 ovarian.
For experiment [5], the system named is SF-268 CNS.
The test system of experiment [6] is HCC-2998 colon.
Experiment [7] concerns SN12C renal.
Experiment [8] deals with DU-145 prostate.
For experiment [9], the system named is MALME-3M melanoma.
For experiment [10], the system named is MDA-N.

Molecules are shown by their SMILES.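 96-well plates; 48 h exposure; 5 concentrations. Endpoints by linear interpolation between flanking doses. Not reached: highest tested concentration assigned. GI50 is the concentration that inhibits growth by half. TGI denotes the concentration required for complete inhibition of growth.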 Where only a bound is given, the exact number is not on record here.

Take `C=C1CCC[C@@H](C)C(O)[C@@H]2OC(=O)C(=C)[C@@H]2C[C@@H](OC(C)=O)[C@@]2(C)CC[C@@H]1O2` (stereo partly drawn): the TGI in experiment [1] is 14.6 µM; in experiment [2], 18.7 µM; in experiment [3], 4.93 µM; in experiment [4], 16.4 µM; in [5], 15.7 µM; in experiment [6] it was 14.9 µM. Further, the values for the TGI in [7] and in experiment [8] were 16 µM and 14.3 µM, respectively.
As for `CC(=O)C(=Cc1cn(C)c(=O)n(C)c1=O)C(C)=O`, the TGI in experiment [1] was 189 µM; in experiment [2], 400 µM; in experiment [3] it was 67.1 µM; in [4] it was 324 µM; in experiment [5] it was 526 µM; in [6], 264 µM. In addition, the values for the TGI in experiment [9] and in [7] were 201 µM and 216 µM, respectively.
As for `CC1=C(C)C(=O)C(C2=CC(=O)c3ccccc3C2=O)=C(C2=CC(=O)c3ccccc3C2=O)C1=O`, the TGI in experiment [1] is 28.9 µM; in experiment [2], 33.4 µM; in [3], 17.4 µM; in experiment [4] it was > 62.3 µM; in experiment [5], > 55.1 µM; in experiment [6], 19.8 µM. Also, the TGI in experiment [9] came to 4.33 µM; in [8], 12.5 µM.
Regarding `COc1ccc(CCNC(=O)Cc2ccccc2CO)cc1OC`, the TGI in experiment [1], in experiment [2], in [3], in experiment [4], in experiment [5] and in [6] was > 100 µM throughout. Also, the TGI in experiment [10], in [7] and in [8] was > 100 µM throughout.
As to `Oc1ccc(C(O)C2CCCCN2)cc1O` (stereo not drawn), the TGI in [1], in [2], in experiment [3], in [4], in experiment [5] and in experiment [9] was > 100 µM in each case. In addition, the TGI in [10], in experiment [7] and in experiment [8] was > 100 µM in each case.
With `COC1CC(C)(NC(=O)C(F)(F)F)C2OC(c3ccccc3)OCC2O1` (stereo not drawn), the TGI in experiment [1], in experiment [2], in [3], in experiment [4], in experiment [5] and in experiment [9] was > 100 µM throughout. Besides, the TGI in experiment [10], in experiment [7] and in experiment [8] was > 100 µM in each case.
On to `N#Cc1c(-c2ccc([N+](=O)[O-])cc2)c(C#N)c(=O)n(NS(=O)(=O)c2ccccc2)c1S`, for which the TGI was > 100 µM in [1]; > 100 µM in [2]; 42.4 µM in [3]; > 100 µM in experiment [4]; > 100 µM in experiment [5]; > 100 µM in [6]. The TGI was > 100 µM in experiment [9] and 34.9 µM in experiment [7].
With `O=C1NC(O)c2cc3ccccc3cc2O1` (stereo not drawn), the TGI in experiment [1], in [2], in experiment [3], in experiment [4], in [5] and in experiment [6] was > 100 µM throughout. The TGI in [9], in experiment [7] and in experiment [8] was > 100 µM in each case.
Consider `CC1=C(CO)C(=O)OC(C(C)C2CCC3C4CC5OC56C(O)C(N5CC5)=CC(=O)C6(C)C4CCC23C)C1` (stereo not drawn), for which the TGI in experiment [1] turned out to be 5.01 µM; in experiment [2], 40.7 µM; in experiment [3], 3.36 µM; in [4], 5.78 µM; in [5] it was 15.5 µM; in [6] it was 9.73 µM. The TGI in experiment [9] was 25.1 µM; in experiment [7], 19.5 µM.
In the case of `CCOC(=O)NC(=S)N(CC(=O)c1cc(OC)c(OC)c(OC)c1)c1ccc(Cl)cc1`, the GI50 in experiment [1] was > 100 µM; in [2], > 100 µM; in experiment [3], 27.9 µM; in experiment [4], > 100 µM; in experiment [5] it was > 100 µM; in experiment [6], 33.4 µM. Also, the GI50 was > 100 µM in experiment [9], > 100 µM in [7] and 79.1 µM in experiment [8]. Besides, the TGI in [1], in experiment [2], in [3], in [4], in experiment [5] and in [6] was > 100 µM each time. Also, the TGI in [9], in experiment [7] and in [8] was > 100 µM throughout.
As for `C=C(Br)CN=CN(C)C`, the TGI in experiment [2], in experiment [3], in experiment [4], in experiment [5], in [9] and in experiment [10] was > 100 µM throughout. The TGI in experiment [7] and in experiment [8] was > 100 µM each time.
For the molecule `Cn1c(=O)c2c(nc3[nH]c(=O)c(Br)cn32)n(C)c1=O`, the TGI in experiment [1], in experiment [2], in experiment [3], in experiment [4], in [5] and in experiment [6] was > 100 µM in each case. The TGI in experiment [10], in experiment [7] and in experiment [8] was > 100 µM in each case.
For the molecule `C=C1c2nc3ccccc3n2C=C(c2ccc(C)cc2)N1c1ccc(OC)cc1`, the TGI in experiment [1] is 63.3 µM; in experiment [2], > 100 µM; in [3] it was > 77.7 µM; in experiment [4], > 100 µM; in experiment [5], > 100 µM; in experiment [6], > 100 µM. For the same molecule, the TGI in experiment [9], in [7] and in [8] was > 100 µM each time.
Turning to `NC(=O)CCC(N=c1c2ccccc2n(O)c2ccccc12)C(=O)O` (stereo not drawn), the TGI in experiment [1], in experiment [2], in [3], in experiment [4], in [5] and in [6] was > 100 µM in each case. Besides, the TGI in [9] and in experiment [7] was > 100 µM throughout.
